Assay results published in the NIST ThermoML archive (doi:10.1016/j.fluid.2009.07.002).

Experiment: xn = mol fraction of the nth substance listed
Details: 101 kPa, Liquid, Taylor dispersion method

Row | SMILES | binary diffusion coefficient (303.2 K, x1 = 0) [m2/s] | binary diffusion coefficient (303.2 K, x1 = 0.2) [m2/s] | binary diffusion coefficient (303.2 K, x1 = 0.4) [m2/s] | binary diffusion coefficient (303.2 K, x1 = 0.6) [m2/s] | binary diffusion coefficient (303.2 K, x1 = 0.8) [m2/s] | binary diffusion coefficient (308.2 K, x1 = 0) [m2/s] | binary diffusion coefficient (308.2 K, x1 = 0.2) [m2/s] | binary diffusion coefficient (308.2 K, x1 = 0.4) [m2/s] | binary diffusion coefficient (308.2 K, x1 = 0.6) [m2/s] | binary diffusion coefficient (308.2 K, x1 = 0.8) [m2/s] | binary diffusion coefficient (313.2 K, x1 = 0) [m2/s] | binary diffusion coefficient (313.2 K, x1 = 0.2) [m2/s] | binary diffusion coefficient (313.2 K, x1 = 0.4) [m2/s] | binary diffusion coefficient (313.2 K, x1 = 0.6) [m2/s] | binary diffusion coefficient (313.2 K, x1 = 0.8) [m2/s] | binary diffusion coefficient (318.2 K, x1 = 0) [m2/s] | binary diffusion coefficient (318.2 K, x1 = 0.2) [m2/s] | binary diffusion coefficient (318.2 K, x1 = 0.4) [m2/s] | binary diffusion coefficient (318.2 K, x1 = 0.6) [m2/s] | binary diffusion coefficient (318.2 K, x1 = 0.8) [m2/s] | other results
1 | OCCO [1,2-ethanediol] + O | 1.24e-09 | 8.14e-10 | 5.28e-10 | 4.02e-10 | 3.34e-10 | 1.38e-09 | 8.89e-10 | 5.8e-10 | 4.51e-10 | 4.05e-10 | 1.51e-09 | 9.8e-10 | 6.31e-10 | 5.18e-10 | 4.68e-10 | 1.68e-09 | 1.09e-09 | 7.57e-10 | 6e-10 | 5.24e-10 | binary diffusion coefficient (298.2 K, x1 = 0): 1.1e-09 m2/s; binary diffusion coefficient (298.2 K, x1 = 0.2): 6.95e-10 m2/s; binary diffusion coefficient (298.2 K, x1 = 0.4): 4.82e-10 m2/s; binary diffusion coefficient (298.2 K, x1 = 0.6): 3.81e-10 m2/s; binary diffusion coefficient (298.2 K, x1 = 0.8): 3.18e-10 m2/s; binary diffusion coefficient (323.2 K, x1 = 0): 1.86e-09 m2/s; binary diffusion coefficient (323.2 K, x1 = 0.2): 1.19e-09 m2/s; binary diffusion coefficient (323.2 K, x1 = 0.4): 8.48e-10 m2/s; binary diffusion coefficient (323.2 K, x1 = 0.6): 6.88e-10 m2/s; binary diffusion coefficient (323.2 K, x1 = 0.8): 6.03e-10 m2/s
2 | OCCOCCOCCO [triethylene glycol] + O | 8.15e-10 | 3.71e-10 | 2.78e-10 | 2.33e-10 | 2.01e-10 | 8.99e-10 | 4.3e-10 | 3.12e-10 | 2.7e-10 | 2.41e-10 | 9.94e-10 | 5.1e-10 | 3.7e-10 | 3.25e-10 | 2.98e-10 | 1.07e-09 | 5.48e-10 | 4.27e-10 | 3.79e-10 | 3.51e-10 | binary diffusion coefficient (323.2 K, x1 = 0): 1.18e-09 m2/s; binary diffusion coefficient (323.2 K, x1 = 0.2): 6.3e-10 m2/s; binary diffusion coefficient (323.2 K, x1 = 0.4): 4.8e-10 m2/s; binary diffusion coefficient (323.2 K, x1 = 0.6): 4.44e-10 m2/s; binary diffusion coefficient (323.2 K, x1 = 0.8): 4.15e-10 m2/s
3 | OCCOCCO [diethylene glycol] + O | 1.04e-09 | 4.69e-10 | 3.18e-10 | 2.82e-10 | 2.56e-10 | 1.13e-09 | 5.24e-10 | 3.75e-10 | 3.29e-10 | 3.06e-10 | 1.25e-09 | 6.02e-10 | 4.45e-10 | 3.93e-10 | 3.72e-10 | 1.41e-09 | 7.01e-10 | 5.16e-10 | 4.6e-10 | 4.3e-10 | binary diffusion coefficient (323.2 K, x1 = 0): 1.53e-09 m2/s; binary diffusion coefficient (323.2 K, x1 = 0.2): 7.83e-10 m2/s; binary diffusion coefficient (323.2 K, x1 = 0.4): 5.71e-10 m2/s; binary diffusion coefficient (323.2 K, x1 = 0.6): 5.37e-10 m2/s; binary diffusion coefficient (323.2 K, x1 = 0.8): 5.03e-10 m2/s
